Reference: patent publication US20240409585A1, “MACROCYCLIC IMMUNOMODULATORS” (priority 2021, published 2024)
Bridge positions count the residues as written; N and C are the ends. Square brackets hold non-standard residues; d marks the D form. Peptide text beside a SMILES is read from it. * marks the point of attachment. ξ: configuration not given here. Phe(4-COOH) = N[C@@H](Cc1ccc(C(=O)O)cc1)C(=O)O; Bip = N[C@@H](Cc1ccc(-c2ccccc2)cc1)C(=O)O; Phe(4-CN) = N#Cc1ccc(C[C@H](N)C(=O)O)cc1; Phe(4-Cl) = N[C@@H](Cc1ccc(Cl)cc1)C(=O)O; Phe(3-Me) = Cc1cccc(C[C@H](N)C(=O)O)c1; Gly(cPent) = N[C@H](C(=O)O)C1CCCC1; Val(3-OH) = CC(C)(O)[C@H](N)C(=O)O; aIle = CC[C@@H](C)[C@H](N)C(=O)O; 4Pal = N[C@@H](Cc1ccncc1)C(=O)O; Cha = N[C@@H](CC1CCCCC1)C(=O)O; Cit = NC(=O)NCCC[C@H](N)C(=O)O; NMeL = CN[C@@H](CC(C)C)C(=O)O; Thr(3ξ) = CC(O)[C@H](N)C(=O)O; Ahp(2) = CCCCC[C@H](N)C(=O)O; Ala(CN) = N#CC[C@H](N)C(=O)O; Pip = O=C(O)[C@@H]1CCCCN1; Carboxymethyl = O=C(O)C*; NMeA = CN[C@@H](C)C(=O)O; Orn = NCCC[C@H](N)C(=O)O; Dab = NCC[C@H](N)C(=O)O; Dap = NC[C@H](N)C(=O)O; ξV = CC(C)C(N)C(=O)O; ξC = NC(CS)C(=O)O; Acm = CC(=O)NC*

molecular target: T1, PE-labeled human PD-L1-Ig binding to Jurkat cell line over-expressing human PD-1 (Jurkat-PD-1) (Homo sapiens, UniProt Q15116); experiment: Jurkat-PD-1 Cell Binding High-Content Screening Assay (CBA): Method 1; details: Jurkat-hPD-1 cells, PE-labeled PD-L1-Ig 20 nM final; read-out: Jurkat HPDL1 PD1 IC50 (uM) (Method 1)
T1 construct: expressed in transfected cells; host or cells: Jurkat
T1 sequence (Q15116 25-288): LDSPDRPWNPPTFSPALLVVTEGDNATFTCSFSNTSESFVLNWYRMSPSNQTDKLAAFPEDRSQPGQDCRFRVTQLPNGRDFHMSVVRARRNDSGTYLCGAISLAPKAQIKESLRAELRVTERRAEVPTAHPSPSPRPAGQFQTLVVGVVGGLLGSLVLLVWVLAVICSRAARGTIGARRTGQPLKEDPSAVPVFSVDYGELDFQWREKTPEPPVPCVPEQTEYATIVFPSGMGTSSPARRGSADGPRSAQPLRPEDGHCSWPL

| IC50 [µM] | Structure (SMILES) |
| --- | --- |
| 0.01 | Cc1cccc(C[C@@H]2NC(=O)[C@H](CC(=O)O)NC(=O)[C@H](Cc3ccc(C(=O)O)cc3)NC(=O)[C@H](Cc3ccncc3)NC(=O)CSC[C@@H](C(N)=O)NC(=O)[C@H](CCCN)NC(=O)[C@H](C(C)C)NC(=O)[C@H](CC3CCCCC3)NC(=O)[C@H](CCN)NC(=O)[C@@H](CC(C)C)NC(=O)[C@H](C)N(C)C(=O)[C@H](CCCNC(N)=O)NC(=O)[C@H](Cc3ccc(-c4ccccc4)cc3)NC(=O)[C@H](C(C)C)NC2=O)c1 [Compound 1897] ({CH2CO}-[4Pal][Phe(4-COOH)]D[Phe(3-Me)]V[Bip][Cit][NMeA][dL][Dab][Cha]V[Orn]C-NH2; thioether N-14) |
| 0.09 | Cc1cccc(C[C@@H]2NC(=O)[C@H](CC(=O)O)NC(=O)[C@H](Cc3ccc(OCC(=O)O)cc3)NC(=O)[C@H]([C@@H](C)O)NC(=O)CSC[C@@H](C(N)=O)NC(=O)[C@H]([C@@H](C)O)NC(=O)[C@H](C(C)C)NC(=O)[C@H](CC3CCCCC3)NC(=O)[C@H](CCN)NC(=O)[C@@H](CC(C)C)NC(=O)[C@H](C)N(C)C(=O)[C@H](Cc3ccc(OCC(=O)O)cc3)NC(=O)[C@H](Cc3ccc(-c4ccccc4)cc3)NC(=O)[C@H](Cc3ccc(OCC(=O)O)cc3)NC2=O)c1 [Compound 1672] ({CH2CO}-TY(Carboxymethyl)D[Phe(3-Me)]Y(Carboxymethyl)[Bip]Y(Carboxymethyl)[NMeA][dL][Dab][Cha]VTC-NH2; thioether N-14) |
| 0.06 | CC(C)C[C@@H]1NC(=O)[C@H](CCCNC(=N)N)NC(=O)[C@@H](CC(C)C)NC(=O)[C@H](C)N(C)C(=O)[C@H](CCCNC(=N)N)NC(=O)[C@H](Cc2ccc(-c3ccccc3)cc2)NC(=O)[C@H](C(C)C)NC(=O)[C@H](Cc2c[nH]c3ccccc23)NC(=O)[C@H](CC(=O)O)NC(=O)[C@H](Cc2ccc(Cl)cc2)NC(=O)[C@H](Cc2ccccc2)NC(=O)CSC[C@@H](C(=O)N[C@@H](C)C(N)=O)NC(=O)[C@H]([C@@H](C)O)NC(=O)[C@H](C(C)C)NC1=O [Compound 1081] ({CH2CO}-F[Phe(4-Cl)]DWV[Bip]R[NMeA][dL]RLVTCA-NH2; thioether N-14) |
| 0.36 | CC(C)C[C@H]1NC(=O)[C@H](C)N(C)C(=O)[C@H](CCCNC(=N)N)NC(=O)[C@H](Cc2ccc(-c3ccccc3)cc2)NC(=O)[C@H](C(C)C)NC(=O)[C@H](Cc2c[nH]c3ccccc23)NC(=O)[C@H](CC(=O)O)NC(=O)[C@H](Cc2ccc(O)cc2)NC(=O)[C@H](Cc2ccccc2)NC(=O)CSC[C@@H](C(=O)N[C@@H](C)C(N)=O)NC(=O)[C@H]([C@@H](C)O)NC(=O)[C@H](C(C)C)NC(=O)[C@H](CC(C)C)N(C)C(=O)[C@H](CCCNC(=N)N)NC1=O [Compound 1117] ({CH2CO}-FYDWV[Bip]R[NMeA][dL]R[NMeL]VTCA-NH2; thioether N-14) |
| 0.01 | Cc1cccc(C[C@@H]2NC(=O)[C@H](CC(=O)O)NC(=O)[C@H](Cc3ccc(OCC(=O)O)cc3)NC(=O)[C@H](C(C)O)NC(=O)CSC[C@@H](C(=O)N[C@@H](CCN)C(N)=O)NC(=O)[C@H](CO)NC(=O)[C@H](C(C)(C)O)NC(=O)[C@H](CC3CCCCC3)NC(=O)[C@H](CCN)NC(=O)[C@@H](CC(C)C)NC(=O)[C@H](C)N(C)C(=O)[C@H](Cc3ccc(OCC(=O)O)cc3)NC(=O)[C@H](Cc3ccc(-c4ccccc4)cc3)NC(=O)[C@H](Cc3ccc(C(=O)O)cc3)NC2=O)c1 (stereo partly drawn) [Compound 2150] ({CH2CO}-[Thr(3ξ)]Y(Carboxymethyl)D[Phe(3-Me)][Phe(4-COOH)][Bip]Y(Carboxymethyl)[NMeA][dL][Dab][Cha][Val(3-OH)]SC[Dab]-NH2; thioether N-14) |
| 0.11 | CC(C)C[C@@H]1NC(=O)[C@H](CCN)NC(=O)[C@@H](CC(C)C)NC(=O)[C@H](C)N(C)C(=O)[C@H](CCC(=O)O)NC(=O)[C@H](Cc2ccc(-c3ccccc3)cc2)NC(=O)[C@H](C(C)C)NC(=O)[C@H](Cc2c[nH]c3ccccc23)NC(=O)[C@H](CC(=O)O)NC(=O)[C@H](Cc2ccc(OCC(=O)O)cc2)NC(=O)[C@H](CC(N)=O)NC(=O)CSC[C@@H](C(=O)N[C@@H](C)C(N)=O)NC(=O)[C@H]([C@@H](C)O)NC(=O)[C@H](C(C)C)NC1=O [Compound 1390] ({CH2CO}-NY(Carboxymethyl)DWV[Bip]E[NMeA][dL][Dab]LVTCA-NH2; thioether N-14) |
| 0.04 | CC[C@@H](C)[C@@H]1NC(=O)[C@H](Cc2ccc(-c3ccccc3)cc2)NC(=O)[C@H](C2CCCC2)NC(=O)[C@H](Cc2c[nH]c3ccccc23)NC(=O)[C@H](CC(=O)O)NC(=O)[C@H](Cc2ccc(C(=O)O)cc2)NC(=O)[C@H](Cc2ccc(OCC(=O)O)cc2)NC(=O)CSC[C@@H](C(=O)N[C@@H](CCCCN)C(N)=O)NC(=O)[C@H](CO)NC(=O)C(C(C)C)NC(=O)[C@H](CC(C)C)NC(=O)[C@H](CC(N)=O)NC(=O)[C@@H](CC(C)C)NC(=O)[C@H](C)N(C)C1=O (stereo partly drawn) [Compound 2103] ({CH2CO}-Y(Carboxymethyl)[Phe(4-COOH)]DW[Gly(cPent)][Bip][aIle][NMeA][dL]NL[ξV]SCK-NH2; thioether N-14) |
| 0.07 | CCCCC[C@@H]1NC(=O)[C@H](Cc2ccc(-c3ccccc3)cc2)NC(=O)[C@H](C(C)C)NC(=O)[C@H](Cc2c[nH]c3ccccc23)NC(=O)[C@H](CC(=O)O)NC(=O)[C@H](Cc2ccc(O)cc2)NC(=O)[C@H](CN)NC(=O)CSC[C@@H](C(=O)N[C@@H](C)C(N)=O)NC(=O)[C@H](C(C)O)NC(=O)[C@H](C(C)C)NC(=O)[C@H](CC(C)C)NC(=O)[C@H](CCN)NC(=O)[C@@H](CC(C)C)NC(=O)[C@H](C)N(C)C1=O (stereo partly drawn) [Compound 2082] ({CH2CO}-[Dap]YDWV[Bip][Ahp(2)][NMeA][dL][Dab]LV[Thr(3ξ)]CA-NH2; thioether N-14) |
| 0.15 | Cc1cccc(C[C@@H]2NC(=O)[C@H](CC(=O)O)NC(=O)[C@H](Cc3ccc(OCC(=O)O)cc3)NC(=O)[C@H](CN)NC(=O)CSC[C@@H](C(N)=O)NC(=O)[C@H](CCCN)NC(=O)[C@H](C(C)C)NC(=O)[C@H](CC3CCCCC3)NC(=O)[C@H](CCN)NC(=O)[C@@H](CC(C)C)NC(=O)[C@@H]3CCCCN3C(=O)[C@H](Cc3ccc(OCC(=O)O)cc3)NC(=O)[C@H](Cc3ccc(-c4ccccc4)cc3)NC(=O)[C@H](Cc3ccc(OCC(=O)O)cc3)NC2=O)c1 [Compound 1890] ({CH2CO}-[Dap]Y(Carboxymethyl)D[Phe(3-Me)]Y(Carboxymethyl)[Bip]Y(Carboxymethyl)[Pip][dL][Dab][Cha]V[Orn]C-NH2; thioether N-14) |
| 0.16 | CC(C)C[C@@H]1NC(=O)[C@H](CCN)NC(=O)[C@@H](CC(C)C)NC(=O)[C@H](C)N(C)C(=O)[C@H](Cc2cnc[nH]2)NC(=O)[C@H](Cc2ccc(-c3ccccc3)cc2)NC(=O)[C@H](C(C)C)NC(=O)[C@H](Cc2c[nH]c3ccccc23)NC(=O)[C@H](CC(=O)O)NC(=O)[C@H](Cc2ccc(C#N)cc2)NC(=O)[C@H](CN)NC(=O)CSC[C@@H](C(=O)N[C@@H](C)C(N)=O)NC(=O)[C@H]([C@@H](C)O)NC(=O)[C@H](C(C)C)NC1=O [Compound 1433] ({CH2CO}-[Dap][Phe(4-CN)]DWV[Bip]H[NMeA][dL][Dab]LVTCA-NH2; thioether N-14) |
| 0.02 | CC[C@H](C)[C@@H]1NC(=O)[C@H](Cc2ccc(-c3ccccc3)cc2)NC(=O)[C@H](C(C)(C)O)NC(=O)[C@H](Cc2cccc(C)c2)NC(=O)[C@H](CC(=O)O)NC(=O)[C@H](Cc2ccc(O)cc2)NC(=O)[C@H](CC(N)=O)NC(=O)CSC[C@@H](C(=O)N[C@@H](CCN)C(N)=O)NC(=O)[C@H]([C@@H](C)O)NC(=O)[C@H](C(C)(C)O)NC(=O)[C@H](CC2CCCCC2)NC(=O)[C@H](CCN)NC(=O)[C@@H](CC(C)C)NC(=O)[C@H](C)N(C)C1=O [Compound 1693] ({CH2CO}-NYD[Phe(3-Me)][Val(3-OH)][Bip]I[NMeA][dL][Dab][Cha][Val(3-OH)]TC[Dab]-NH2; thioether N-14) |
| 0.01 | CC(C)C[C@H]1NC(=O)[C@H](C)N(C)C(=O)[C@H](CCCNC(N)=O)NC(=O)[C@H](Cc2ccc(-c3ccccc3)cc2)NC(=O)[C@H](C(C)C)NC(=O)[C@H](Cc2c[nH]c3ccccc23)NC(=O)[C@H](CC(=O)O)NC(=O)[C@H](Cc2ccc(OCC(=O)O)cc2)NC(=O)[C@H](Cc2ccccc2)NC(=O)CSC[C@@H](C(=O)N[C@@H](C)C(N)=O)NC(=O)[C@H](CO)NC(=O)[C@H](C(C)C)NC(=O)[C@H](CC2CCCCC2)NC(=O)[C@H](CC(N)=O)NC1=O [Compound 2022] ({CH2CO}-FY(Carboxymethyl)DWV[Bip][Cit][NMeA][dL]N[Cha]VSCA-NH2; thioether N-14) |
| 0.06 | CC[C@@H](C)[C@@H]1NC(=O)[C@H](Cc2ccc(-c3ccccc3)cc2)NC(=O)[C@H](CC(C)C)NC(=O)[C@H](Cc2c[nH]c3ccccc23)NC(=O)[C@H](CC(=O)O)NC(=O)[C@H](Cc2ccc(C(=O)O)cc2)NC(=O)[C@H](Cc2ccc(OCC(=O)O)cc2)NC(=O)CSC[C@@H](C(=O)N[C@@H](CCCCN)C(N)=O)NC(=O)[C@H](CC#N)NC(=O)C(C(C)C)NC(=O)[C@H](CC(C)C)NC(=O)[C@H](CC(N)=O)NC(=O)[C@@H](CC(C)C)NC(=O)[C@H](C)N(C)C1=O (stereo partly drawn) [Compound 2106] ({CH2CO}-Y(Carboxymethyl)[Phe(4-COOH)]DWL[Bip][aIle][NMeA][dL]NL[ξV][Ala(CN)]CK-NH2; thioether N-14) |
| 0.2 | CC(=O)NCSC[C@@H]1NC(=O)[C@H](Cc2cccc(C)c2)NC(=O)[C@H](CC(=O)O)NC(=O)[C@H](Cc2ccncc2)NC(=O)[C@H](Cc2ccc(OCC(=O)O)cc2)NC(=O)CSCC(C(=O)NCC(N)=O)NC(=O)[C@H](CO)NC(=O)[C@H](C(C)C)NC(=O)[C@H](CC(C)C)NC(=O)[C@H](CC(N)=O)NC(=O)[C@@H](CC(C)C)NC(=O)[C@H](C)N(C)C(=O)[C@H](CSCNC(C)=O)NC(=O)[C@H](Cc2ccc(-c3ccccc3)cc2)NC1=O (stereo partly drawn) [Compound 1888] ({CH2CO}-Y(Carboxymethyl)[4Pal]D[Phe(3-Me)]C(Acm)[Bip]C(Acm)[NMeA][dL]NLVS[ξC]G-NH2; thioether N-14) |
